Assay results reported in patent US4109009A, “Analgesic, relaxant, and anti-inflammatory cyclopentanol derivatives” (Roussel Uclaf, priority 1975, dated 1978).
In brackets after ≈: the same amount, converted by molar mass.

How the values were obtained:
guinea pig ileon = assay: Relaxant activity on the guinea pig ileon; settings: Cavia porcellus, Tyrode 37° C, concentration suppressing spontaneous contractions and relaxing the organ, read-out: Relaxant action
Procedure: B. Relaxant Activity on the guinea pig ileon
The relaxant effect of the test compounds was determined on guinea pig ileon using the procedure of Test A above. The terminal portion of the guinea pig ileon was removed and washed with Tyrode solution at 37° C. It was then suspended in an bath of oxygenated Tyrode liquid at 37° C and the contractions were registered on a collector attached to a Sanborn polygraph. The test product was added to bath of the organ with a low volume and the concentration which caused a suppression of spontaneous contractions and relaxed the organ, cuasing a lowering of the line of the base was considered to be relaxant.

[1] = tested on: prostaglandin synthetases of lungs of guinea pigs; assay: Inhibitory effect against biosynthesis of prostaglandins from arachidonic acid (Vane); assay type: biochemical; settings: guinea pig lung homogenate supernatant, arachidonic acid 10 μg, 30 minutes at 37° C; read-out on isolated rat colon; read-out: CI50 (the source's name)
Description: D. Inhibitory effect against biosynthesis of prostaglandins
Synthesis of prostaglandins starting with arachidonic acid by means of prostaglandin synthetases of lungs of guinea pigs
This test used the procedure of Vane [Nature New-Biology, Vo. 231 (1971), p. 232-235] wherein the lungs of adult guinea pigs (two per series) were rapidly removed and washed with a modified, iced Bucher medium. The lung tissue was homogenized in a Turrax grinder in a minute and the homogenate was centrifuged for 20 minutes to 1200 g. The supernatant was used as a preparation of prostaglandin synthetases.
A solution of arachidonic acid in ethanol at a concentration of 10 mg/ml was diluted with a 0.2% aqueous sodium carbonate solution and was then diluted further with a modified Bucher medium to obtain a final acid concentration of 200 μg/ml. The biosynthesis inhibitors are put into aqueous on dilute alcohol (20% maximum) solutions. Tubes were prepared containing 1 ml of the prostaglandin synthetases preparation, 10 μg of arachidonic acid and 0.1 ml of inhibiting solution or, for the controls, an equal volume of water or dilute alcohol. The tubes were incubated with stirring for 30 minutes at 37° C in aerobic conditions and each test consisted of a tube containing a biosynthesis inhibitor, one biosynthesis control with incubated arachidonic acid and one control with non-incubated arachidonic acid. The latter control permitted a evaluation of amount of natural prostaglandins present in the ground lung and the results obtained with this control must therefore be taken away from the control of biosynthesis and from all the tests. The reactions are stopped by immersion in boiling water until the proteins are coagulated. The dosage of "prostaglandin like" activity was effected biologically on the isolated rat colon suspended in Krebs liquid, mixed to augment the specificity, with antagonists to other contracturant mediators susceptible to interfere. The antagonists were mepyramine, scopolamine, methysergide, phenoxybenzamine and propanolol.
A comparison of the results registered in the presence or absence of a test product permitted the calculation of the percentage of biosynthesis inhibition. The CI50 dose which inhibited by 50% the biosynthesis activity was graphically obtained by straight line representing the percent of inhibition with reference to the incubated controls against the log of the concentration in μg/ml and the results are reported in Table IV.

prostaglandin E2 = assay: Antagonistic activity to the contracturant effect of prostaglandin E2 (isolated rat colon, method of Magnus); settings: Krebs 37° C, product added 30 seconds before PGE2 (5 to 10 ng/ml), 50% inhibition of contractions
Procedure: A. Antagonistic activity to the contracturant effect of prostaglandin E2
The antagonistic effect of the test compounds to the contracturant activity of prostaglandin E2 was determined by the method of Magnus wherein a portion of the colon adjacent to the caecum was removed from a rat and was washed with a Krebs solution at 37° C. The colon was then suspended in a bath of oxygenated Krebs liquid kept at 37° C and the contactions of the organ were registered with a collector attached to a Sanborn polygraph. The organ was first standarized with prostaglandin E2 to determine the concentration necessary to obtain a significant contraction (5 to 10 ng/ml). The antagonistic product was added to the bath 30 seconds before the standard dose of PGE2 and the intensity of the contraction was measured. The concentration of product which inhibited by 50% the contractions provoked by PGE2 was determined by the straight line effect-log of the dose and the CI50 is reported in Table I.

mice = assay: Analgesic activity -- stretching provoked by acetic acid (Koster et al); assay type: in vivo; settings: Mus musculus, 0.25 h, oral, one half hour before intraperitoneal acetic acid, 15 minute observation, dose reducing stretchings by 50%, read-out: DA50 (the source's name)
Procedure: C. Analgesic Activity -- stretching provoked by acetic acid
The test procedure was that of Koster et al wherein an interitoneal injection of aqueous acetic acid in a concentration of 1% at a dose of 100 mg/kg caused in mice repeated movements of strectching and twisting which can persist for more than 6 hours. Analgesics prevent or lessen the syndrome. The test products were orally administered one half hour before the acetic acid injection and the mice were fasted from the day before the tests. The stretching were counted for each mouse during a 15 minute observation period beginning right after the acetic acid injection and the analgesic affect was expressed as a percentage of protection with respect to the controls.

Compound	minimal effective concentration (guinea pig ileon) [µg/mL]	IC50 [1] [µM]	CI50 against PGE2 (prostaglandin E2) [µg/mL]	ED50 (mice) [mg/kg]
CCCCC[C@@H](/C=C/[C@H]1CC[C@@H](O)[C@@H]1C(=O)OCCC)OC1CCCCO1 (relative stereo) [M]	5	652		
CCCCC[C@@H](/C=C/[C@H]1CC[C@@H](O)[C@@H]1C(=O)CCC)OC1CCCCO1 (relative stereo) [Q]	10			
CCCCCC(C)(O)/C=C/[C@H]1CC[C@H](O)[C@@H]1C(=O)OCC (some centres unmarked) [E]	5	604		
CCCCC[C@@H](CC[C@H]1CC[C@H](O)[C@@H]1C(=O)OCC)OC1CCCCO1 (relative stereo) [H]	10			
C#C[C@@](O)(/C=C/[C@H]1CC[C@H](O)[C@@H]1C(=O)OCC)CCCCC (relative stereo) [N]	5			
CCCCC[C@@H](/C=C/[C@H]1CC[C@H](O)[C@@H]1C(=O)CCC)OC1CCCCO1 (relative stereo) [S]		628		
CCCCC[C@@H](CC[C@H]1CC[C@@H](O)[C@@H]1C(=O)OCC)OC1CCCCO1 (relative stereo) [K]	5			
CCCCCCCCCOC(=O)[C@H]1[C@@H](O)CC[C@@H]1/C=C/[C@@H](O)CCCCC (relative stereo) [D]	10	523		
CCCCC[C@@H](/C=C/[C@H]1CC[C@@H](O)[C@@H]1C(=O)OCC)OC1CCCCO1 (relative stereo) [G]	20	204	20 (≈ 54.3 µM)	~100
CCCCC[C@H](O)/C=C/[C@H]1CC[C@H](O)[C@@H]1C(=O)OCC (relative stereo) [B]	20	376		100
CCCCC[C@@H](/C=C/[C@H]1CC[C@H](O)[C@@H]1C(=O)OCCC)OC1CCCCO1 (relative stereo) [J]	10			
CCCCC[C@@H](/C=C/[C@H]1CC[C@H](O)[C@@H]1C(=O)OCC)OC1CCCCO1 (relative stereo) [F]	20	54	20 (≈ 54.3 µM)	~100
C#C[C@@](/C=C/[C@H]1CC[C@H](O)[C@@H]1C(=O)OCC)(CCCCC)OC1CCCCO1 (relative stereo) [Product O, Ethyl (1RS, 2SR, 5RS, 3'SR) (1'E) 2-hydroxy-5-(3'-α-tetrahydropyranyloxy-3'-ethynyl-1'-octenyl)-cyclopentanecarboxylate]	10			
CCCCC[C@H](O)/C=C/[C@H]1CC[C@@H](O)[C@@H]1C(=O)OCC (relative stereo) [A]	20		20 (≈ 70.3 µM)	
CCCCC[C@@H](/C=C/[C@H]1CC[C@@H](O)[C@H]1C(=O)OCC)OC1CCCCO1 (relative stereo) [R]		542		
CCCCC[C@@H](/C=C/[C@H]1CC[C@@H](O)[C@@H]1C(=O)OC)OC1CCCCO1 (relative stereo) [L]	5			
C#C[C@@](/C=C/[C@H]1CC[C@H](O)[C@@H]1C(=O)OCC)(CCCCC)OC1CCCCO1 (relative stereo) [O]		229		
CCCCC[C@@H](/C=C/[C@H]1CC[C@H](O)[C@@H]1C(=O)OC)OC1CCCCO1 (relative stereo) [I]	5			
C#C[C@@](/C=C/[C@H]1CC[C@@H](O)[C@@H]1C(=O)OCC)(CCCCC)OC1CCCCO1 (relative stereo) [P]	5	382		~100
CCCCCC(C)(O)/C=C/[C@H]1CC[C@@H](O)[C@@H]1C(=O)OCC (some centres unmarked) [C]	1	503		
